Data on 16 compounds can be found in ChEMBL document CHEMBL2040720, “Potent CXCR4 antagonists containing amidine type Peptide bond isosteres” (ACS Med Chem Lett, 2011).

Each structure is given as a SMILES string. Activity calls are given as the source filed them. The rule behind the calls is not given here.

For series [1], the system named is Human immunodeficiency virus 1. Kind of series: Antiviral activity against Human immunodeficiency virus 1 3B infected in human HeLa cells assessed as inhibition of viral replication after 48 hrs by MAGI assay. The format is functional, organism-based.
Series [2] addresses Atypical chemokine receptor 3 (Homo sapiens) (UniProt P25106). Briefly: Inhibition of CXCR7 interaction with SDF1alpha.
For series [3], the system named is Human immunodeficiency virus 1. Briefly: Antiviral activity against Human immunodeficiency virus 1 NL4.3 infected in human HeLa cells assessed as inhibition of viral replication after 48 hrs by MAGI assay. It counts as functional, organism-based. Particulars: Human immunodeficiency virus 1, NL4.3, HeLa.
For series [4], the system named is Human immunodeficiency virus 1. Briefly: Antiviral activity against CCR5-tropic Human immunodeficiency virus 1 Ba-L infected in human HeLa cells assessed as inhibition of viral replication at 10 uM after 48 hrs by MAGI assay. The format is functional, organism-based.
The next series relates to HeLa. Briefly: Cytotoxicity against human HeLa cells at 10 uM by MAGI assay. The format is cell-based.
Series [5] addresses C-X-C chemokine receptor type 4 (Homo sapiens, UniProt P61073). Briefly: Displacement of [125I]-SDF-1alpha from CXCR4 receptor expressed in HEK293 cells after 1 hr by scintillation counting. The format is cell-based.

Sequence of C-X-C chemokine receptor type 4 (P61073 whole entry): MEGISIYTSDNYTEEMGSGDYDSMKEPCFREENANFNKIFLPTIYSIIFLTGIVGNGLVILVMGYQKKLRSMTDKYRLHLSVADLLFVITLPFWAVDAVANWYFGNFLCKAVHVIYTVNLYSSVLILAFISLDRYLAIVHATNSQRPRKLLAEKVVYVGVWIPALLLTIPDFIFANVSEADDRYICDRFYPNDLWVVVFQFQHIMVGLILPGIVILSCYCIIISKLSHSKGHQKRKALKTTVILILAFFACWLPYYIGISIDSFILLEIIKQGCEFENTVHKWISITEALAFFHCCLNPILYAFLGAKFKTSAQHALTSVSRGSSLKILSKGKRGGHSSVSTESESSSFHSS
Sequence of Atypical chemokine receptor 3 (Homo sapiens) (P25106 whole entry): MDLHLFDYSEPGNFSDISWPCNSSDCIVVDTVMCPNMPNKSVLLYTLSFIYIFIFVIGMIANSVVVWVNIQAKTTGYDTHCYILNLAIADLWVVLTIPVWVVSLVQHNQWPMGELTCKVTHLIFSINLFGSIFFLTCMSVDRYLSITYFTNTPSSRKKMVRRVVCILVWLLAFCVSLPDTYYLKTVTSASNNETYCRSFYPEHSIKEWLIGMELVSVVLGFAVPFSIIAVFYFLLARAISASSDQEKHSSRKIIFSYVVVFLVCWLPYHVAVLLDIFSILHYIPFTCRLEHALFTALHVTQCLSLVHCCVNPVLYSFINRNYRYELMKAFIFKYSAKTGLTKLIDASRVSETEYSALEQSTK

`N=C(N)NCCC[C@@H]1NC(=O)[C@H](CCCNC(=N)N)NC(=O)[C@@H](Cc2ccc(O)cc2)NC(=O)CNC(=O)[C@H](Cc2ccc3ccccc3c2)NC1=N`: the EC50 in series [1] was 6.3 nM; in series [3], 4.4 nM. Also, the inhibition result in series [2] was “inactive”. Besides, the outcome in series [4] was inactive.
As to `N=C(N)NCCC[C@@H]1NC(=O)[C@H](CCCNC(=N)N)NC(=O)[C@@H](Cc2ccc(O)cc2)NC(=N)CNC(=O)[C@H](Cc2ccc3ccccc3c2)NC1=O`, the values for the EC50 in series [1] and in series [3] were 0.61 nM and 1.3 nM, respectively. The inhibition result in series [2] is “inactive”. In series [4], the result was inactive.
For the compound `NC(N)=NCCC[C@@H]1NC(=O)[C@H](CCCN=C(N)N)NC(=O)[C@@H](Cc2ccc(O)cc2)N=C(N)CNC(=O)[C@H](Cc2ccc3ccccc3c2)NC1=O`, in the series with HeLa, the Activity entry is listed as “Non-toxic”. This compound also returned an IC50 in series [5] of 9.4 nM.
Take `NC(N)=NCCC[C@@H]1N=C(N)[C@H](CCCN=C(N)N)NC(=O)[C@@H](Cc2ccc(O)cc2)NC(=O)CNC(=O)[C@H](Cc2ccc3ccccc3c2)NC1=O`: in the series on HeLa, the Activity entry is given as “Non-toxic”. Moreover, in series [5], the IC50 came to 16 nM.
For `N=C(N)NCCC[C@@H]1NC(=O)[C@H](CCCNC(=N)N)NC(=O)[C@@H](Cc2ccc(O)cc2)NC(=O)CNC(=N)[C@H](Cc2ccc3ccccc3c2)NC1=O`, the EC50 in series [1] is 1 nM; in series [3], 1.4 nM. For the same compound, the Activity result with HeLa is “Non-toxic”. In addition, in series [2], the inhibition result was “inactive”. In series [5], this compound had an IC50 of 4.2 nM. Also, the result in series [4] was inactive.
`N=C(N)NCCC[C@@H]1NC(=N)[C@@H](Cc2ccc(O)cc2)NC(=O)CNC(=O)[C@H](Cc2ccc3ccccc3c2)NC(=O)[C@H](CCCNC(=N)N)NC1=O`: the half-maximal effective concentration (EC50) turned out to be 258 nM in series [1] and 300 nM in series [3]. In series [2], the inhibition entry is “inactive”. For the same compound, the outcome in series [4] was inactive.
Regarding `N=C(N)NCCC[C@@H]1NC(=O)[C@@H](Cc2ccc(O)cc2)NC(=O)CNC(=O)[C@H](Cc2ccc3ccccc3c2)NC(=O)[C@H](CCCNC(=N)N)NC1=N`, the EC50 in series [1] is 1.2 nM; in series [3], 1.9 nM. In series [2], the inhibition entry was “inactive”. The outcome in series [4] was inactive.
As to `NC(N)=NCCC[C@@H]1NC(=O)[C@H](CCCN=C(N)N)NC(=O)[C@@H](Cc2ccc(O)cc2)NC(=O)CN=C(N)[C@@H](Cc2ccc3ccccc3c2)NC1=O`, the Activity result with HeLa is given as “Non-toxic”. This compound also yielded an IC50 in series [5] of 4.9 nM.
`N=C(N)NCCC[C@@H]1NC(=O)[C@H](CCCNC(=N)N)NC(=O)[C@@H](Cc2ccc(O)cc2)NC(=O)CNC(=O)[C@H](Cc2ccc3ccccc3c2)NC1=O`: the EC50 in series [1] and in series [3] was 21 nM each time. The outcome in series [4] was inactive.
Regarding `CN1C(=O)[C@@H](Cc2ccc(O)cc2)NC(=O)CNC(=O)[C@H](Cc2ccc3ccccc3c2)NC(=O)[C@H](CCCNC(=N)N)NC(=O)[C@H]1CCCNC(=N)N`, the EC50 in series [1] and in series [3] was 7.6 nM throughout. The result in series [4] was inactive.
Regarding `NC(N)=NCCC[C@@H]1N=C(N)[C@H](Cc2ccc(O)cc2)NC(=O)CNC(=O)[C@H](Cc2ccc3ccccc3c2)NC(=O)[C@H](CCCN=C(N)N)NC1=O`, the Activity result with HeLa is recorded as “Non-toxic”. Besides, in series [5], the IC50 turned out to be 334 nM.
As to `NC(N)=NCCC[C@@H]1N=C(N)[C@@H](Cc2ccc(O)cc2)NC(=O)CNC(=O)[C@H](Cc2ccc3ccccc3c2)NC(=O)[C@H](CCCN=C(N)N)NC1=O`, the Activity entry with HeLa is given as “Non-toxic”. Besides, the concentration for half-maximal inhibition (IC50) in series [5] is 679 nM.
`NC(N)=NCCC[C@@H]1NC(=O)[C@@H](Cc2ccc(O)cc2)NC(=O)CNC(=O)[C@H](Cc2ccc3ccccc3c2)N=C(N)[C@H](CCCN=C(N)N)NC1=O`: the Activity result in the series with HeLa is “Non-toxic”. The compound also returned an IC50 in series [5] of 11 nM.
For `N=C(N)NCCC[C@@H]1NC(=O)[C@H](CCCNC(=N)N)NC(=O)[C@@H](Cc2ccc(O)cc2)NC(=O)CNC(=N)[C@@H](Cc2ccc3ccccc3c2)NC1=O`, the EC50 came out at 2 nM in series [1] and 2.2 nM in series [3]. Besides, in series [2], the inhibition entry is “inactive”. In addition, the result in series [4] was inactive.
For `CN1C(=O)[C@@H](Cc2ccc(O)cc2)NC(=O)CNC(=O)[C@H](Cc2ccc3ccccc3c2)NC(=O)[C@H](CCCN=C(N)N)NC(=O)[C@H]1CCCN=C(N)N`, in series [5], the IC50 came to 37 nM.
`N=C(N)NCCC[C@@H]1NC(=N)[C@H](Cc2ccc(O)cc2)NC(=O)CNC(=O)[C@H](Cc2ccc3ccccc3c2)NC(=O)[C@H](CCCNC(=N)N)NC1=O`: the EC50 in series [1] is 238 nM; in series [3], 248 nM. Besides, in series [2], the inhibition result was “inactive”. Further, the result in series [4] was inactive.
